tested on: HIV-1 (IIIB); test: Antiviral (HIV) assay in MT-4 cells; format: cell-based; conditions: Human immunodeficiency virus 1, MT4, 120 h; HIV-1 IIIB in MT-4 cells, 5 days incubation, Cell Titer Glo; average of at least two independent experiments
Description: Example 104: Antiviral (HIV) Assay in MT-4 Cells
Compounds were tested in a high-throughput 384-well assay format for their ability to inhibit the replication of HIV-1 (IIIB) in MT-4 cells. Compounds were serially diluted (1:3) in DMSO on 384-well polypropylene plates and further diluted 200-fold into complete RPMI media (10% FBS, 1% P/S) using the Biotek Micro Flow and Labcyte ECHO acoustic dispenser. Each plate contained up to 8 test compounds, with negative (no drug) and positive (5 μM AZT) controls. MT-4 cells were pre-treated with 10 μL of either RPMI (mock-infected) or a fresh 1:250 dilution of HIV-1 IIIB concentrated virus stock. Infected and uninfected MT-4 cells were further diluted in complete RPMI media and added to each plate using a Micro Flow dispenser. After 5 days incubation in a humidified and temperature-controlled incubator (37° C.), Cell Titer Glo (Promega) was added to the assay plates and chemiluminescence read using an Envision plate-reader. EC50 values were defined as the compound concentration that causes a 50% decrease in luminescence signal and were calculated using a sigmoidal dose-response model to generate curve fits and are shown in Table 1.

Question: With `CCCCCCCCCCCC(=O)Nc1ncnc2c1ncn2C[C@@H](C)OCP(=O)(NC(C)(C)C(=O)OCCCCCC)NC(C)(C)C(=O)OCCCCCC` [Example 30, Dihexyl 2,2′-(((((1-(6-dodecanamido-9H-purin-9-yl)propan-2-yl)oxy)methyl)phosphoryl)bis(azanediyl))(R)-bis(2-methylpropanoate)] as the compound, how does the EC50 read?
Answer: 68 nM

Question: How did the EC50 turn out when `CCCCCCOC(=O)C(C)(C)NP(=O)(CO[C@H](C)Cn1cnc2c(NC(=O)OCCC)ncnc21)NC(C)(C)C(=O)OCCCCCC` [Example 31, Dihexyl 2,2′-(((((1-(6-((propoxycarbonyl)amino)-9H-purin-9-yl)propan-2-yl)oxy)methyl)phosphoryl)bis(azanediyl))(R)-bis(2-methylpropanoate)] was run?
Answer: > 500 nM

Question: Which EC50 does the source give for `CCCCCCOC(=O)C(C)(C)NP(=O)(CO[C@H](C)Cn1cnc2c(NC(=O)OCCCCC)ncnc21)NC(C)(C)C(=O)OCCCCCC` [Example 32, Dihexyl 2,2′-(((((1-(6-(((pentyloxy)carbonyl)amino)-9H-purin-9-yl)propan-2-yl)oxy)methyl)phosphoryl)bis(azanediyl))(R)-bis(2-methylpropanoate)] here?
Answer: > 500 nM

Question: With `CCCCCCOC(=O)C(C)(C)NP(=O)(CO[C@H](C)Cn1cnc2c(NC(=O)OCc3oc(=O)oc3C)ncnc21)NC(C)(C)C(=O)OCCCCCC` [Example 33, Dihexyl 2,2′-(((((1-(6-((((5-methyl-2-oxo-1,3-dioxol-4-yl)methoxy)carbonyl)amino)-9H-purin-9-yl)propan-2-yl)oxy)methyl)phosphoryl)bis(azanediyl))(R)-bis(2-methylpropanoate)] as the compound, how does the EC50 read?
Answer: 7 nM

Question: For `C[C@H](Cn1cnc2c(N)ncnc21)OCP(=O)(NC(C)(C)C(=O)OC1CCCC1)NC(C)(C)C(=O)OC1CCCC1` [Example 34, Dicyclopentyl 2,2′-(((((1-(6-amino-9H-purin-9-yl)propan-2-yl)oxy)methyl)phosphoryl)bis(azanediyl))(R)-bis(2-methylpropanoate)], which EC50 is on record?
Answer: 3 nM

Question: For `CC(C)COC(=O)C(C)(C)NP(=O)(CO[C@H](C)Cn1cnc2c(N)ncnc21)NC(C)(C)C(=O)OCC(C)C` [Example 35, Diisobutyl 2,2′-(((((1-(6-amino-9H-purin-9-yl)propan-2-yl)oxy)methyl)phosphoryl)bis(azanediyl))(R)-bis(2-methylpropanoate)], which EC50 is on record?
Answer: 5 nM

Question: With `CCCOC(=O)C(C)(C)NP(=O)(CO[C@H](C)Cn1cnc2c(N)ncnc21)NC(C)(C)C(=O)OCCC` [Example 36, Dipropyl 2,2′-(((((1-(6-amino-9H-purin-9-yl)propan-2-yl)oxy)methyl)phosphoryl)bis(azanediyl))(R)-bis(2-methylpropanoate)] as the compound, how does the EC50 read?
Answer: 14 nM

Question: For `C[C@H](Cn1cnc2c(N)ncnc21)OCP(=O)(NC(C)(C)C(=O)OCC1CCC1)NC(C)(C)C(=O)OCC1CCC1` [Example 37, Bis(cyclobutylmethyl) 2,2′-(((((1-(6-amino-9H-purin-9-yl)propan-2-yl)oxy)methyl)phosphoryl)bis(azanediyl))(R)-bis(2-methylpropanoate)], which EC50 is on record?
Answer: 4 nM

Question: With `CCCCOC(=O)C(C)(C)NP(=O)(CO[C@H](C)Cn1cnc2c(N)ncnc21)NC(C)(C)C(=O)OCCCC` [Example 38, Dibutyl 2,2′-(((((1-(6-amino-9H-purin-9-yl)propan-2-yl)oxy)methyl)phosphoryl)bis(azanediyl))(R)-bis(2-methylpropanoate)] as the compound, how does the EC50 read?
Answer: 10 nM

Question: Which EC50 does the source give for `CCCCCCCCOC(=O)C(C)(C)NP(=O)(CO[C@H](C)Cn1cnc2c(N)ncnc21)NC(C)(C)C(=O)OCCCCCCCC` [Example 39, Dioctyl 2,2′-(((((1-(6-amino-9H-purin-9-yl)propan-2-yl)oxy)methyl)phosphoryl)bis(azanediyl))(R)-bis(2-methylpropanoate)] here?
Answer: 24 nM

Question: Which EC50 does the source give for `C[C@H](Cn1cnc2c(N)ncnc21)OCP(=O)(NC(C)(C)C(=O)OC1CCCCC1)NC(C)(C)C(=O)OC1CCCCC1` [Example 40, Dicyclohexyl 2,2′-(((((1-(6-amino-9H-purin-9-yl)propan-2-yl)oxy)methyl)phosphoryl)bis(azanediyl))(R)-bis(2-methylpropanoate)] here?
Answer: 6 nM

Question: How did the EC50 turn out when `C[C@H](Cn1cnc2c(N)ncnc21)OCP(=O)(NC(C)(C)C(=O)OC1CC2(CCC2)C1)NC(C)(C)C(=O)OC1CC2(CCC2)C1` (stereo partly drawn) [Example 41, Di(spiro[3.3]heptan-2-yl) 2,2′-(((((1-(6-amino-9H-purin-9-yl)propan-2-yl)oxy)methyl)phosphoryl)bis(azanediyl))(R)-bis(2-methylpropanoate)] was run?
Answer: 3 nM

Question: `C[C@H](Cn1cnc2c(N)ncnc21)OCP(=O)(NC(C)(C)C(=O)OC1CC(C)(C)C1)NC(C)(C)C(=O)OC1CC(C)(C)C1` [Example 42, Bis(3,3-dimethylcyclobutyl) 2,2′-(((((1-(6-amino-9H-purin-9-yl)propan-2-yl)oxy)methyl)phosphoryl)bis(azanediyl))(R)-bis(2-methylpropanoate)] was tested. Which EC50 did it give?
Answer: 2 nM

Question: `CC(C)OC(=O)C(C)(C)NP(=O)(CO[C@H](C)Cn1cnc2c(N)ncnc21)NC(C)(C)C(=O)OC(C)C` [Example 43, Diisopropyl 2,2′-(((((1-(6-amino-9H-purin-9-yl)propan-2-yl)oxy)methyl)phosphoryl)bis(azanediyl))(R)-bis(2-methylpropanoate)] was tested. Which EC50 did it give?
Answer: 20 nM

Question: For `C[C@H](Cn1cnc2c(N)ncnc21)OCP(=O)(NC(C)(C)C(=O)OC1CCC(C)(C)CC1)NC(C)(C)C(=O)OC1CCC(C)(C)CC1` [Example 44, Bis(4,4-dimethylcyclohexyl) 2,2′-(((((1-(6-amino-9H-purin-9-yl)propan-2-yl)oxy)methyl)phosphoryl)bis(azanediyl))(R)-bis(2-methylpropanoate)], which EC50 is on record?
Answer: 7 nM

Question: For `C[C@H](Cn1cnc2c(N)ncnc21)OCP(=O)(NC(C)(C)C(=O)OCC1CCCC1)NC(C)(C)C(=O)OCC1CCCC1` [Example 45, Bis(cyclopentylmethyl) 2,2′-(((((1-(6-amino-9H-purin-9-yl)propan-2-yl)oxy)methyl)phosphoryl)bis(azanediyl))(R)-bis(2-methylpropanoate)], which EC50 is on record?
Answer: 3 nM

Question: With `C[C@H](Cn1cnc2c(N)ncnc21)OCP(=O)(NC(C)(C)C(=O)OCC1CCCCC1)NC(C)(C)C(=O)OCC1CCCCC1` [Example 46, Bis(cyclohexylmethyl) 2,2′-(((((1-(6-amino-9H-purin-9-yl)propan-2-yl)oxy)methyl)phosphoryl)bis(azanediyl))(R)-bis(2-methylpropanoate)] as the compound, how does the EC50 read?
Answer: 5 nM

Question: With `C[C@H](Cn1cnc2c(N)ncnc21)OCP(=O)(NC(C)(C)C(=O)OC1CCC1)NC(C)(C)C(=O)OC1CCC1` [Example 47, Dicyclobutyl 2,2′-(((((1-(6-amino-9H-purin-9-yl)propan-2-yl)oxy)methyl)phosphoryl)bis(azanediyl))(R)-bis(2-methylpropanoate)] as the compound, how does the EC50 read?
Answer: 7 nM

Question: With `C[C@H](Cn1cnc2c(N)ncnc21)OCP(=O)(NC(C)(C)C(=O)OCC12CCC(CC1)CC2)NC(C)(C)C(=O)OCC12CCC(CC1)CC2` [Example 48, Bis(bicyclo[2.2.2]octan-1-ylmethyl) 2,2′-(((((1-(6-amino-9H-purin-9-yl)propan-2-yl)oxy)methyl)phosphoryl)bis(azanediyl))(R)-bis(2-methylpropanoate)] as the compound, how does the EC50 read?
Answer: 6 nM

Question: For `CCC1(CC)CC(OC(=O)C(C)(C)NP(=O)(CO[C@H](C)Cn2cnc3c(N)ncnc32)NC(C)(C)C(=O)OC2CC(CC)(CC)C2)C1` [Example 49, Bis(3,3-diethylcyclobutyl) 2,2′-(((((1-(6-amino-9H-purin-9-yl)propan-2-yl)oxy)methyl)phosphoryl)bis(azanediyl))(R)-bis(2-methylpropanoate)], which EC50 is on record?
Answer: 5 nM

Question: For `C[C@H](Cn1cnc2c(N)ncnc21)OCP(=O)(NC(C)(C)C(=O)OCC1CC2(CCC2)C1)NC(C)(C)C(=O)OCC1CC2(CCC2)C1` (stereo partly drawn) [Example 50, Bis(spiro[3.3]heptan-2-ylmethyl) 2,2′-(((((1-(6-amino-9H-purin-9-yl)propan-2-yl)oxy)methyl)phosphoryl)bis(azanediyl))(R)-bis(2-methylpropanoate)], which EC50 is on record?
Answer: 7 nM

Question: Which EC50 does the source give for `C[C@H](Cn1cnc2c(N)ncnc21)OCP(=O)(NC(C)(C)C(=O)O[C@H]1C[C@@H](C(C)(C)C)C1)NC(C)(C)C(=O)O[C@H]1C[C@@H](C(C)(C)C)C1` [Example 51, Bis((1S,3S)-3-(tert-butyl)cyclobutyl) 2,2′-((((((R)-1-(6-amino-9H-purin-9-yl)propan-2-yl)oxy)methyl)phosphoryl)bis(azanediyl))bis(2-methylpropanoate)] here?
Answer: 8 nM

Question: `C[C@H](Cn1cnc2c(N)ncnc21)OCP(=O)(NC(C)(C)C(=O)O[C@H]1C[C@H](C(C)(C)C)C1)NC(C)(C)C(=O)O[C@H]1C[C@H](C(C)(C)C)C1` [Example 52, Bis((1R,3R)-3-(tert-butyl)cyclobutyl) 2,2′-((((((R)-1-(6-amino-9H-purin-9-yl)propan-2-yl)oxy)methyl)phosphoryl)bis(azanediyl))bis(2-methylpropanoate)] was tested. Which EC50 did it give?
Answer: 8 nM

Question: For `C[C@H](Cn1cnc2c(N)ncnc21)OCP(=O)(NC(C)(C)C(=O)OCC1CCC2(CCC2)CC1)NC(C)(C)C(=O)OCC1CCC2(CCC2)CC1` (stereo partly drawn) [Example 53, Bis(spiro[3.5]nonan-7-ylmethyl) 2,2′-(((((1-(6-amino-9H-purin-9-yl)propan-2-yl)oxy)methyl)phosphoryl)bis(azanediyl))(R)-bis(2-methylpropanoate)], which EC50 is on record?
Answer: 6 nM

Question: How did the EC50 turn out when `CCC(C)(C)CCOC(=O)C(C)(C)NP(=O)(CO[C@H](C)Cn1cnc2c(N)ncnc21)NC(C)(C)C(=O)OCCC(C)(C)CC` [Example 54, Bis(3,3-dimethylpentyl) 2,2′-(((((1-(6-amino-9H-purin-9-yl)propan-2-yl)oxy)methyl)phosphoryl)bis(azanediyl))(R)-bis(2-methylpropanoate)] was run?
Answer: 4 nM
